How the values were obtained:
[1] = Metabolic stability in human liver microsomes; type: ADME, Microsome; conditions: read-out: Stability
[2] = Metabolic stability in rat liver microsomes; type: ADME, Microsome; conditions: read-out: Stability
Oryctolagus cuniculus = assay: Inhibition of des-Arg-Kallidin-induced hypotensive response in sc dosed rabbit; type: functional, organism-based; set-up: scale not given: the % may be the effect or the level left
B1 bradykinin receptor [3] = molecular target: T1, B1 bradykinin receptor (Homo sapiens, UniProt P46663); assay: Antagonist activity at human bradykinin B1 receptor expressed in clone CHO-D-/aequorin cells by aquerin based assay; type: functional, cell-based
T1 sequence (P46663 whole entry): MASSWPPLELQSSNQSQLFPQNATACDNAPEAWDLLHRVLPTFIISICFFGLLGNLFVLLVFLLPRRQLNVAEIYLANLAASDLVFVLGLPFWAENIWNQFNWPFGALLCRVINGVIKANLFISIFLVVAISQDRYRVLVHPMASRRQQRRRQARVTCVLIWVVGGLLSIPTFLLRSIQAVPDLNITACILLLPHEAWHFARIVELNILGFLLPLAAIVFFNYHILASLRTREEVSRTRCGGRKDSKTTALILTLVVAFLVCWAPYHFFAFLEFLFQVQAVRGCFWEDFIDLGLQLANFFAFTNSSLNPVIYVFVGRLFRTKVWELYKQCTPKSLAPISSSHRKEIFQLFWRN

B1 bradykinin receptor [4] = molecular target: T1, B1 bradykinin receptor; assay: Displacement of [3H]DAK from human bradykinin B1 receptor expressed in clone CHO-D-/aequorin cells; type: cell-based
B1 bradykinin receptor [5] = molecular target: T2, B1 bradykinin receptor (Oryctolagus cuniculus, UniProt P48748); assay: Antagonist activity at rabbit bradykinin B1 receptor expressed in clone CHO-D-/aequorin cells by aquerin based assay; type: functional, cell-based
T2 sequence (P48748 whole entry): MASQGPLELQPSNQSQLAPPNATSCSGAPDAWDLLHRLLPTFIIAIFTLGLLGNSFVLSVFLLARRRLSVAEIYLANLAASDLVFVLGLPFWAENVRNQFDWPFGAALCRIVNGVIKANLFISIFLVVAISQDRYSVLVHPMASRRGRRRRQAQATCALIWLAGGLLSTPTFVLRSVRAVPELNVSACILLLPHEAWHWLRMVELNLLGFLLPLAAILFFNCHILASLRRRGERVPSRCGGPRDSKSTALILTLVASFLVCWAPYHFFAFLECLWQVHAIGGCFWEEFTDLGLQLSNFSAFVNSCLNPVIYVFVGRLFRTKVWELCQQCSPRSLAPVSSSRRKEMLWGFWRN

Compound	microsomal CLint [1] [µL/min/mg]	microsomal CLint [2] [µL/min/mg]	Activity (Oryctolagus cuniculus) [%]	IC50 (B1 bradykinin receptor [3]) [µM]	Ki (B1 bradykinin receptor [4]) [µM]	IC50 (B1 bradykinin receptor [5]) [µM]
O=C(C[C@@H](NS(=O)(=O)c1ccc2ccccc2c1)c1ccccc1)N[C@@H]1CCCc2cc(CN3CCCCC3)ccc21	919	572	–	–	–	–
O=C(C[C@@H](NS(=O)(=O)c1cccc(C(F)(F)F)c1)c1ccc(F)cc1)N[C@@H]1CCOc2cc(CN3CCCCC3)ccc21	–	–	47	–	–	–
O=C(CC(CS(=O)(=O)c1ccc2ccccc2c1)c1ccccc1)N[C@@H]1CCCc2cc(CN3CCCCC3)ccc21 (stereo not given in full)	744	167	–	0.0137	0.0015	–
Cc1ccc(S(=O)(=O)C[C@@H](O)[C@@H](O)C(=O)N[C@@H]2CCCc3cc(CN4CCCCC4)ccc32)cc1	50	50	–	–	–	–
CO[C@H](CCS(=O)(=O)c1ccc2ccccc2c1)C(=O)N[C@@H]1CCCc2cc(CN3CCCCC3)ccc21	216	237	–	–	–	–
O=C(N[C@@H]1CCCc2cc(CN3CCCCC3)ccc21)[C@H](O)[C@H](O)CS(=O)(=O)c1ccccc1	319	50	–	–	–	–
O=C(N[C@@H]1CCCc2cc(CN3CCCCC3)ccc21)[C@H](O)[C@H](O)CS(=O)(=O)c1ccc(C(F)(F)F)cc1	50	50	–	0.0449	0.0484	0.21
CC(C)(C)c1ccc(S(=O)(=O)C[C@@H](O)[C@@H](O)C(=O)N[C@@H]2CCCc3cc(CN4CCCCC4)ccc32)cc1	296	50	–	0.0045	0.0158	0.0253
O=C(N[C@@H]1CCCc2cc(CN3CCCCC3)ccc21)[C@@H](O)CCS(=O)(=O)c1ccc2ccccc2c1	100	143	–	0.0308	0.0191	–
O=C(N[C@@H]1CCCc2cc(CN3CCCCC3)ccc21)[C@H](O)CCS(=O)(=O)c1ccc2ccccc2c1	100	50	–	0.0506	0.0235	–
CO[C@@H](CC(=O)N[C@@H]1CCCc2cc(CN3CCCCC3)ccc21)CS(=O)(=O)c1ccc2ccccc2c1	274	316	–	–	–	–
O=C(N[C@@H]1CCCc2cc(CN3CCCCC3)ccc21)[C@H](O)[C@H](O)CS(=O)(=O)c1cccc(Cl)c1Cl	214	50	–	–	–	–
O=C(CCCS(=O)(=O)c1ccc2ccccc2c1)N[C@@H]1CCCc2cc(CN3CCCCC3)ccc21	50	100	–	–	–	–
O=C(C[C@@H](O)CS(=O)(=O)c1ccc2ccccc2c1)N[C@@H]1CCCc2cc(CN3CCCCC3)ccc21	–	–	–	0.107	0.1	–
O=C(N[C@@H]1CCCc2cc(CN3CCCCC3)ccc21)[C@H](O)[C@H](O)CS(=O)(=O)c1ccc(Cl)c(Cl)c1	100	193	–	0.0171	0.0169	0.0203
O=C(N[C@@H]1CCCc2cc(CN3CCCCC3)ccc21)[C@H](O)[C@H](O)CS(=O)(=O)c1cccc(Cl)c1	180	139	–	–	–	–
O=C(C[C@H](O)CS(=O)(=O)c1ccc2ccccc2c1)N[C@@H]1CCCc2cc(CN3CCCCC3)ccc21	112	100	–	0.0489	0.0414	–

Source: ChEMBL document CHEMBL1139432, “Aryl sulfones as novel bradykinin B1 receptor antagonists for treatment of chronic pain” (Bioorg Med Chem Lett, 2008)
